Where a name gives a salt, the structure may show the parent alone.
Tests used:
[1] = Evaluation of a conversion rate to 2-acetylnaphtho[2,3-b]furan-4,9-dione in human plasma; format: in vitro ADME; settings: 1 umol/L
Procedure: (§1) For test compounds, the decrease rate of the test compounds and the conversion rate thereof to 2-acetylnaphtho[2,3-b]furan-4,9-dione in human plasma, CD1 mouse plasma, and pH 7.4 phosphate buffer solution were measured.
(§2) Test compounds were incubated at the concentration of 1 umol/L in human plasma (cat. no. 12250210, COSMO BIO), CD1 mouse plasma (cat. no. AP3054, KAC), and phosphate buffer solution at 37° C., and removed at predetermined times (0, 5, 10, 30, 60, and 120 minutes). After protein-removing treatment was performed, they are analyzed with LC-MS. It should be noted that the protein-removing treatment used acetonitrile containing: 10% volume of 1 mol/L hydrochloric acid; 1% volume of 46% citric acid; and phenytoin as an internal standard.
(§3) The measurement condition of LC-MS is as described below. LC-MS condition column: Kinetex 2.6 u PFP 100 A 50×2.1 mm Column temperature: 40° C.
(§4) Mobile phase: A: 0.1% formic acid-containing water
(§5) • B: 0.1% formic acid-containing acetonitrile A/B(min): 95/5(0)→5/95(3)→5/95(4)→95/5(4.1)→95/5(6) Flow rate: 0.4 mL/min Detection: ESI (positive mode) Injection volume: 10 uL
In the same way as Example 6, the incubation time was set as 120 minutes later, and the conversion rate of each of various test compounds to 2-acetylnaphtho[2,3-b]furan-4,9-dione in human plasma, CD1 mouse plasma, and pH 7.4 phosphate buffer solution was measured.

[2] = Evaluation of a conversion rate to 2-acetylnaphtho[2,3-b]furan-4,9-dione in pH 7.4 phosphate buffer solution; format: physicochemical; settings: Phosphate buffer solution (pH 7.4), 1 umol/L, 37° C., incubation time 120 min
Procedure: as §1, §2, §3, §4, §5
(§6) Measurement values are calculated from the peak area ratio in LC-MS between an internal standard material, phenytoin and an active form, 2-acetylnaphtho[2,3-b]furan-4,9-dione, and are expressed in %.
(§7) In the same way as Example 6, the incubation time was set as 120 minutes later, and the conversion rate of each of various test compounds to 2-acetylnaphtho[2,3-b]furan-4,9-dione in human plasma, CD1 mouse plasma, and pH 7.4 phosphate buffer solution was measured. A series of the present compounds were confirmed to be converted to 2-acetylnaphtho[2,3-b]furan-4,9-dione in pH 7.4 phosphate buffer solution in addition to human plasma and CD1 mouse plasma. Therefore, a series of the test compounds of the present invention were confirmed to be converted to the activated form via a route other than an enzymatic conversion.

[3] = Evaluation of a conversion rate to 2-acetylnaphtho[2,3-b]furan-4,9-dione in CD1 mouse plasma; format: in vitro ADME; settings: 1 umol/L
Procedure: as §1, §2, §3, §4, §5, §6, §7

[4] = Solubility test; settings: 50 mmol/L glycine buffer solution (pH 2.0), room temperature, 24 hours shaking
Procedure: A water-soluble prodrug was added into 50 mmol/L glycine buffer solution (pH 2.0). After shaking at room temperature for 24 hours, the mixture was filtered through a membrane filter, and then the filtrate was measured with HPLC.
The measurement condition of HPLC is as described below. HPLC condition column: Acquity UPLC BEH C18, 1.7 um, 50×2.1 mm
Mobile phase: A: 0.1% trifluoroacetic acid-containing water

[5] = Human plasma, 37° C., incubation time 120 min
[6] = CD1 mouse plasma, 37° C., incubation time 120 min

Compound	% Measurement value (conversion rate to 2-acetylnaphtho[2,3-b]furan-4,9-dione) [1, 5] [%]	% Measurement value (conversion rate to 2-acetylnaphtho[2,3-b]furan-4,9-dione) [2] [%]	% Measurement value (conversion rate to 2-acetylnaphtho[2,3-b]furan-4,9-dione) [3, 6] [%]	% Measurement value (conversion rate to 2-acetylnaphtho[2,3-b]furan-4,9-dione) ([1]; human, 120 min) [%]	% Measurement value (conversion rate to 2-acetylnaphtho[2,3-b]furan-4,9-dione) ([3]; CD1, mouse, 120 min) [%]	Solubility in pH 2.0 buffer solution [4] [mg/mL]
CC(=O)c1cc2c(OC(=O)NC3CCNCC3)c3ccccc3c(OC(=O)NC3CCNCC3)c2o1.Cl.Cl [Example 8]	79	49	79			
CC(=O)c1cc2c(OC(=O)NCCOCCN)c3ccccc3c(OC(=O)NCCOCCN)c2o1.Cl.Cl [Example 9]	65	50	81			
CC(=O)c1cc2c(OC(=O)NCCN)c3ccccc3c(O)c2o1.Cl [Example 18]	81	80	73			
CC(=O)c1cc2c(OC(=O)OCCCCN)c3ccccc3c(OC(=O)OCCCCN)c2o1 [Example 21, 2-Acetylnaphtho[2,3-b]furan-4,9-diyl bis(4-aminobutyl)bis(carbonate)dihydrochloride]		24		40	44	
CC(=O)c1cc2c(OC(=O)NC3CCNC3)c3ccccc3c(OC(=O)NC3CCNC3)c2o1.Cl.Cl (stereo not drawn) [Example 48]	71	59				>5.0
CC(=O)c1cc2c(OC(=O)NCCNCCF)c3ccccc3c(OC(=O)NCCNCCF)c2o1.Cl.Cl [Example 43]	81	63				>5.0
CC(=O)c1cc2c(OC(=O)NCCNCCOC(N)=O)c3ccccc3c(OC(=O)NCCNCCOC(N)=O)c2o1.Cl.Cl [Example 65]	81	73				>5.0
COC(=O)OCCNCCCNC(=O)Oc1c2ccccc2c(O)c2cc(C(C)=O)oc12.Cl [Example 92]	34	26				>5.0
COC(=O)OCCNCCCNC(=O)Oc1c2ccccc2c(OC(=O)NCCCNCCOC(=O)OC)c2oc(C(C)=O)cc12.Cl.Cl [Example 70]	66	48				>5.0
CC(=O)c1cc2c(OC(=O)NC3CCCNC3)c3ccccc3c(OC(=O)NC3CCCNC3)c2o1.Cl.Cl (stereo not drawn) [Example 49]	77	58				>5.0
CC(=O)c1cc2c(OC(=O)NCCCNCCOC(N)=O)c3ccccc3c(OC(=O)NCCCNCCOC(N)=O)c2o1.Cl.Cl [Example 66]	59	44				>5.0
CC(=O)c1cc2c(OC(=O)NCCNCC(F)(F)F)c3ccccc3c(OC(=O)NCCNCC(F)(F)F)c2o1.Cl.Cl [Example 45]	84	48				>5.0
CCC(NCCNC(=O)Oc1c2ccccc2c(OC(=O)NCCNC(CC)C(=O)O)c2oc(C(C)=O)cc12)C(=O)O.Cl.Cl (stereo not drawn) [Example 51]	70	55				0.1
Dimethyl 4,4′-((((2-acetylnaphtho[2,3-b]furan-4,9-diyl)bis(oxy))bis(carbonyl))bis-(azanediyl))(2S,2′S)-bis(2-aminobutanoate)dimethanesulfonate salt [Example 104]	82	57				>5.0
CC(=O)c1cc2c(OC(=O)NCCNCCN)c3ccccc3c(OC(=O)NCCNCCN)c2o1.Cl.Cl [Example 46]	59	54				>5.0
CC(=O)c1cc2c(O)c3ccccc3c(OC(=O)NCCNCCS(C)(=O)=O)c2o1.Cl [Example 81]	74	27				0.9
CC(=O)c1cc2c(OC(=O)NCCCNCCS(=O)(=O)N(C)C)c3ccccc3c(OC(=O)NCCCNCCS(=O)(=O)N(C)C)c2o1.Cl.Cl [Example 59]	81	66				>5.0
COC(=O)OCCNCCNC(=O)Oc1c2ccccc2c(OC(=O)NCCNCCOC(=O)OC)c2oc(C(C)=O)cc12.Cl.Cl [Example 69]	90	71				>5.0
CC(=O)c1cc2c(OC(=O)NCCNCCS(=O)(=O)C(C)C)c3ccccc3c(OC(=O)NCCNCCS(=O)(=O)C(C)C)c2o1.Cl.Cl [Example 58]	81	40				1.5
CC(=O)c1cc2c(O)c3ccccc3c(OC(=O)NCCCNCC(=O)N3CCC3)c2o1.Cl [Example 86]	55	38				>5.0
CC(=O)c1cc2c(O)c3ccccc3c(OC(=O)NCCCNCC(=O)NCC(=O)O)c2o1.Cl [Example 84]	42	31				>5.0
CC(=O)c1cc2c(O)c3ccccc3c(OC(=O)NCCNCCOC(N)=O)c2o1.Cl [Example 87]	38	36				4.0
CC(=O)c1cc2c(OC(=O)NCCNCCCC(=O)O)c3ccccc3c(OC(=O)NCCNCCCC(=O)O)c2o1.Cl.Cl [Example 42]	69	54				>5.0

From patent US10800752B2, “Substituted naphtho[2,3-b]furans as water-soluble prodrugs for preventing and/or treating cancer” (BOSTON BIOMEDICAL, INC., priority 2015, dated 2020)
